Source: patent US4508727A, “Antihypertensive 2-oxo-imidazolidine derivatives” (Tanabe Seiyaku Co., Ltd., priority 1982, dated 1985)

What was measured:
[1] = target: T1, angiotensin-converting enzyme (ACE) isolated from pig's renal cortex (Sus scrofa, UniProt F1RRW5); experiment: ACE-inhibitory activity in vitro; assay type: biochemical; conditions: substrate hippuryl-histidyl-leucine, 37° C., 20 minutes
T1 construct: isolated from pig's renal cortex; from tissue; host or cells: pig renal cortex
T1 sequence (F1RRW5 34-1309): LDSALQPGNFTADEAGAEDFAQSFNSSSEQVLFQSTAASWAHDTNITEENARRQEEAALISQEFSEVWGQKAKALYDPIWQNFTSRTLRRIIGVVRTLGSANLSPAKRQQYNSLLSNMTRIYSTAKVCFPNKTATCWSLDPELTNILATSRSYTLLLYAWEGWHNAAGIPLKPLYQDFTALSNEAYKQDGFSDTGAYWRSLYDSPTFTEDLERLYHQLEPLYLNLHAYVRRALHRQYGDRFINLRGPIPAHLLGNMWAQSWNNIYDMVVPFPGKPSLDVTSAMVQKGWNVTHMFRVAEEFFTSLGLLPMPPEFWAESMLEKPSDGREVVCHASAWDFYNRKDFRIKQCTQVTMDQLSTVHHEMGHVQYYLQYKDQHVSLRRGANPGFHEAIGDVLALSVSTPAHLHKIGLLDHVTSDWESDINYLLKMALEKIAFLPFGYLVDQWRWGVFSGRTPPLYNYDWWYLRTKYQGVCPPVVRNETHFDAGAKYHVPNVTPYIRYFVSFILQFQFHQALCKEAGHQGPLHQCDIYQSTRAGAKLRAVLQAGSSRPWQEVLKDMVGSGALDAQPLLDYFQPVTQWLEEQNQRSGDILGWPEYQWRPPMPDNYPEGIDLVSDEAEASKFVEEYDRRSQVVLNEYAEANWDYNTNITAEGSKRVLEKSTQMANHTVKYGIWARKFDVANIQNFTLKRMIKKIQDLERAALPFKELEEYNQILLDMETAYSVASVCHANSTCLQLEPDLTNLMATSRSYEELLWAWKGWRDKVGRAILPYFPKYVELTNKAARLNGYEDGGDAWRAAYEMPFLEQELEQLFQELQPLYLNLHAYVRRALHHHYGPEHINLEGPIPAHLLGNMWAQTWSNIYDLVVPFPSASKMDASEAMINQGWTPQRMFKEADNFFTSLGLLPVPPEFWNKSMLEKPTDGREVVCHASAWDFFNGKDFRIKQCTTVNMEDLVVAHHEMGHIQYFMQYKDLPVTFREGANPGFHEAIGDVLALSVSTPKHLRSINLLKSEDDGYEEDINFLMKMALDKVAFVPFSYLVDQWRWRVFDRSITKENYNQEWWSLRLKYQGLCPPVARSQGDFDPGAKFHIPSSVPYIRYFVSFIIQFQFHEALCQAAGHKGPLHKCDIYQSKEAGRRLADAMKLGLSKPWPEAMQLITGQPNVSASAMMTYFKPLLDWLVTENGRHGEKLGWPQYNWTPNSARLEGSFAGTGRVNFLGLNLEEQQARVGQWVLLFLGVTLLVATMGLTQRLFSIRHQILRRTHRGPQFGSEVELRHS
Procedure: 50 μl of a solution containing 0.01 mole/liter of hippuryl-histidyl-leucine (substrate) and 0-100 μl of a test compound solution were added to 300 μl of a 0.2M tris-hydrochloric acid buffer solution containing 0.2 mole/liter of sodium chloride. The total volume of said mixture was adjusted to 450 μl with water. Then, 50 μl of angiotensin-converting enzyme (ACE) isolated from pig's renal cortex were added to the mixture, and the mixture was allowed to stand at 37° C. for 20 minutes. The amount of histidyl-leucine produced from the substrate by the action of ACE was assayed microbiologically by the use of Leuconostoc mesenteroides P-60, and the ACE-inhibitory activity of the test compound was estimated therefrom.

[2] = test system: ACE; experiment: ACE-inhibitory activity in vivo, pressor response to angiotensin I, intravenous, cats; set-up: species or system cat; conditions: normotensive cats, 10 γ/kg intravenously, angiotensin I 600 ng/kg
Procedure: (§1) Normotensive rats and normotensive cats were anesthetized with urethane (1.2 g/kg, s.c.), and angiotensin I (rat: 300 ng/kg, cat: 600 ng/kg) was injected into the jugular vein of the rats and the femoral vein of the cats. The pressor response to angiotensin I was measured with a pressure transducer connected to the carotid artery. Then, a test compound was injected intravenously thereto at a dose of 10 γ/kg, and angiotensin I (rat: 300 ng/kg, cat: 600 ng/kg) was further injected intravenously at intervals. The ACE-inhibitory activity of the test compound was estimated by dose-response curve measured from the pressor responses to angiotensin I which were obtained before and after intravenous injection of the test compound.

[3] = test system: ACE; experiment: ACE-inhibitory activity in vivo, pressor response to angiotensin I, intravenous, rats; set-up: species or system rat; conditions: normotensive rats, 10 γ/kg intravenously, angiotensin I 300 ng/kg
Procedure: as §1

[4] = test system: ACE; experiment: ACE-inhibitory activity in vivo, pressor response to angiotensin I, oral, rats; set-up: species or system rat; conditions: for ACE-inhibitory activity (%): normotensive rats, 1 mg/kg orally, angiotensin I 300 ng/kg i.v.
Procedure: Normotensive rats were anesthetized with urethane (1.2 g/kg, s.c.), and angiotensin I (300 ng/kg) was injected into the jugular vein of the rats. The pressor response to angiotensin I was measured with a pressure transducer connected to the carotid artery. Then, a test compound was administered orally thereto at a dose of 1 mg/kg, and angiotensin I (300 ng/kg) was further injected intravenously at intervals. The ACE-inhibitoryactivity of the test compound was estimated from the pressor responses to angiotensin I which were obtained before and after oral administration of the test compound.

[5] = test system: spontaneously hypertensive rats (SHR); experiment: Hypotensive activity in SHR; assay type: in vivo, rat; conditions: 3 mg/kg orally; for hypotensive activity, Blood pressure (b): measured after administration of the test compound / hypotensive activity, Blood pressure (a): measured before administration of the test compound / Duration of action: SHR; for hypotensive activity, Blood pressure (b): measured after administration of the test compound / hypotensive activity, Blood pressure (a): measured before administration of the test compound: systolic
Procedure: A test compound suspended in an aqueous carboxymethyl-cellulose solution was administered orally (dose: 3 mg/kg) to spontaneously hypertensive rats (SHR) fasted overnight. The systolic blood pressure of the rats was measured by the tail plethysmographic technique (The Journal of Laboratory and Clinical Medicine 78 (1971), page 957). The hypotensive activity of the test compound was estimated from the decreased level of blood pressure.

[6] = test system: mice; experiment: toxicity, intravenous administration to mice; assay type: in vivo; conditions: 1000 mg/kg intravenously, 7 days after the administration
Procedure: Further, the toxicity of the compound (I) of the invention is remarkably low. For example, when (4S)-1-benzyl-3-{(2 S)-2-[N-((1S)-1-carboxy-3-phenylpropyl)amino]propionyl}-2-oxo-imidazolidine-4-carboxylic acid and (4S)-1-methyl-3-{(2S)-2-[N-((1S)-1-carboxy-n-nonyl)amino]propionyl}-2-oxo- imidazolidine-4-carboxylic acid were administered intravenously to mice at the dose of 1000 mg/kg, no mice died 7 days after the administration. Thus, angiotensin-dependent hypertension in mammals can be alleviated by administration of the compound (I) of the present invention or a pharmaceutically acceptable salt thereof.

CC[C@H](N[C@@H](CCc1ccccc1)C(=O)O)C(=O)N1C(=O)N(Cc2ccccc2)C[C@H]1C(=O)O [Example 17-(2), (4S)-1-benzyl-3-{(2S)-2-[N-((1S)-1-carboxy-3-phenylpropyl)amino]-n-butyryl}-2-oxo-imidazolidine-4-carboxylic acid]
IC50 [1]: 2.3 nM

CCCCCCCC[C@H](N[C@@H](C)C(=O)N1C(=O)N(Cc2ccccc2)C[C@H]1C(=O)O)C(=O)O [Example 9, (4S)-1-benzyl-3-{(2S)-2-[N-((1S)-1-carboxy-n-nonyl)amino]propionyl}-2-oxo-imidazolidine-4-carboxylic acid]
IC50 [1]: 1.5 nM

C[C@H](N[C@@H](CCc1ccccc1)C(=O)O)C(=O)N1C(=O)N(C)C[C@H]1C(=O)O [Example 4, (4S)-1-methyl-3-{(2S)-2-[N-((1S)-1-carboxy-3-phenylpropyl)amino]propionyl}-2-oxo-imidazolidine-4-carboxylic acid]
ACE-inhibitory activity (%) [2]: 40 ± 6%
ACE-inhibitory activity (%) [3]: 56 ± 3%

CCOC(=O)[C@H](CCc1ccccc1)N[C@@H](C)C(=O)N1C(=O)N(C)C[C@H]1C(=O)O [Example 1, (4S)-1-methyl-3-{(2S)-2-[N-((1S)-1-ethoxycarbonyl-3-phenylpropyl)amino]propionyl}-2-oxo-imidazolidine-4-carboxylic acid]
ACE-inhibitory activity (%) [4]: 60 ± 6%
inhibition of ACE-activity ([4]; rats administered angiotensin I intravenously, 1.0 mg/kg): about 60%
hypotensive activity, Blood pressure (b): measured after administration of the test compound [5]: 136 ± 4 mm Hg
hypotensive activity, Blood pressure (a): measured before administration of the test compound [5]: 181 ± 3 mm Hg
Duration of action ([5]; 3 mg/kg): more than 6 hours
Duration of action ([5]; listed as CH3, CH3, C6 H5 (CH2)2, C2 H5, 3 mg/kg): > 6 h
decrease in blood pressure ([5]; spontaneously hypertensive rats): about 45 mmHg

CCCCCCCC[C@H](N[C@@H](CC)C(=O)N1C(=O)N(Cc2ccccc2)C[C@H]1C(=O)O)C(=O)O [Example 15-(3), (4S)-1-benzyl-3-{(2S)-2-[N-((1S)-1-carboxy-n-nonyl)amino]-n-butyryl}-2-oxo-imidazolidine-4-carboxylic acid]
IC50 [1]: 1.4 nM

CC(C)C[C@H](N[C@@H](C)C(=O)N1C(=O)N(Cc2ccccc2)C[C@H]1C(=O)O)C(=O)O [Example 12-(2), (4S)-1-benzyl-3-{(2S)-2-[N-((1S)-1-carboxy-isopentyl)amino]propionyl}-2-oxo-imidazolidine-4-carboxylic acid]
IC50 [1]: 2.1 nM

C[C@H](N[C@@H](CCc1ccccc1)C(=O)O)C(=O)N1C(=O)N(Cc2ccccc2)C[C@H]1C(=O)O [Example 8, (4S)-1-benzyl-3-{(2S)-2-[N-((1S)-1-carboxy-3-phenylpropyl)amino]propionyl}-2-oxo-imidazolidine-4-carboxylic acid]
IC50 [1]: 1.7 nM
mortality (mice died) [6]: no mice died
ACE-inhibitory activity (%) [2]: 36 ± 8%
ACE-inhibitory activity (%) [3]: 33 ± 4%

CC(C)CC[C@H](N[C@@H](C)C(=O)N1C(=O)N(Cc2ccccc2)C[C@H]1C(=O)O)C(=O)O [Example 13-(2), (4S)-1-benzyl-3-{(2S)-2-[N-((1S)-1-carboxy-4-methyl-n-pentyl)amino]propionyl}-2-oxo-imidazolidine-4-carboxylic acid]
IC50 [1]: 3.3 nM

CCCCCCCC[C@H](N[C@@H](C)C(=O)N1C(=O)N(C)C[C@H]1C(=O)O)C(=O)OCC [Example 3, (4S)-1-methyl-3-{(2S)-2-[N-((1S)-1-ethoxycarbonyl-n-nonyl)amino]propionyl}-2-oxo-imidazolidine-4-carboxylic acid]
ACE-inhibitory activity (%) [4]: 56 ± 7%
Duration of action [5]: > 6 h
hypotensive activity, Blood pressure (b): measured after administration of the test compound [5]: 143 ± 4 mm Hg
hypotensive activity, Blood pressure (a): measured before administration of the test compound [5]: 174 ± 5 mm Hg

C[C@H](N[C@@H](Cc1ccccc1)C(=O)O)C(=O)N1C(=O)N(Cc2ccccc2)C[C@H]1C(=O)O [Example 14-(3), (4S)-1-benzyl-3-{(2S)-2-[N-((1S)-1-carboxy-2-phenylethyl)amino]propionyl}-2-oxo-imidazolidine-4-carboxylic acid]
IC50 [1]: 11 nM

CCCCCCCC[C@H](N[C@@H](C)C(=O)N1C(=O)N(C)C[C@H]1C(=O)O)C(=O)O [Example 5, (4S)-1-methyl-3-{(2S)-2-[N-((1S)-1-carboxy-n-nonyl)amino]propionyl}-2-oxo-imidazolidine-4-carboxylic acid]
mortality (mice died) [6]: no mice died
ACE-inhibitory activity (%) [2]: 36 ± 5%
ACE-inhibitory activity (%) [3]: 47 ± 4%
